Drawing on patent US8735414B2 (priority 2009, dated 2014), this text covers IC50 for 22 molecules.

Where only a bound is given, the exact number is not on record here.

In the assay the test system is bicistronic HCV replicon (replicon RNA, GenBank Accession No. AJ242654). Kind of assay: HCV Replicon Assay. Format: cell-based. The following applies: Hepatitis C virus, 72 h, read-out: Replicon IC50. (In general: A replicon is a self-replicating genome or part of one, used to study replication in cells.)
In general, IC50 refers to the concentration at which inhibition is half-maximal. In the case of `Cc1cc2c(cc1F)c(C#N)c(-c1ncc(S(=O)(=O)N[C@@H](C)C(F)(F)F)cn1)n2C1CCCCC1` [compound 679, 2-(3-cyano-1-cyclohexyl-5-fluoro-6-methyl-1H-indol-2-yl)-N-[(2S)-1,1,1-trifluoropropan-2-yl]pyrimidine-5-sulfonamide], the IC50 is < 500 nM.
In the case of `C[C@H](NS(=O)(=O)c1ccc(-c2c(C#N)c3c(F)cc(OC(F)F)cc3n2CC2CC2)nc1)C(F)(F)F` [compound 773, 6-[3-cyano-1-(cyclopropylmethyl)-6-(difluoromethoxy)-4-fluoro-1H-indol-2-yl]-N-[(2S)-1,1,1-trifluoropropan-2-yl]pyridine-3-sulfonamide], the IC50 is 500 to 2000 nM.
For `Cc1cc2c(cc1F)c(C#N)c(-c1ccc(S(=O)(=O)NC3(C(F)(F)F)CC3)cn1)n2C1CCCCC1` [compound 856, 6-(3-cyano-1-cyclohexyl-5-fluoro-6-methyl-1H-indol-2-yl)-N-[1-(trifluoromethyl)cyclopropyl]pyridine-3-sulfonamide], the half-maximal inhibitory concentration (IC50) is < 500 nM.
The figure for `CC(C)NS(=O)(=O)c1cnc(-c2c(C#N)c3ccc(CF)cc3n2C2CCC2)nc1` [compound 315, 2-[3-cyano-1-cyclobutyl-6-(fluoromethyl)-1H-indol-2-yl]-N-(propan-2-yl)pyrimidine-5-sulfonamide] is < 500 nM.
Turning to `CCc1cc2c(cc1F)c(C#N)c(-c1ccc(S(=O)(=O)N[C@@H](C)C(F)(F)F)cn1)n2-c1ncccn1` [compound 704, 6-[3-cyano-6-ethyl-5-fluoro-1-(pyrimidin-2-yl)-1H-indol-2-yl]-N-[(2S)-1,1,1-trifluoropropan-2-yl]pyridine-3-sulfonamide], the IC50 was < 500 nM.
As for `N#Cc1c(-c2ccc(S(=O)(=O)NC(CF)CF)cn2)n(CC2CC2)c2cc(C3CC3)ccc12` [compound 84, 6-[3-cyano-6-cyclopropyl-1-(cyclopropylmethyl)-1H-indol-2-yl]-N-(1,3-difluoropropan-2-yl)pyridine-3-sulfonamide], the 50% inhibitory concentration (IC50) is < 500 nM.
Turning to `C[C@H](NS(=O)(=O)c1ccc(-c2c(C#N)c3cc(Cl)ccc3n2C2CCCC2)nc1)C1CC1` [compound 118, 6-(5-chloro-3-cyano-1-cyclopentyl-1H-indol-2-yl)-N-[(1S)-1-cyclopropylethyl]pyridine-3-sulfonamide], the IC50 was < 500 nM.
The result for `N#Cc1c(-c2ccc(S(=O)(=O)NC(CF)CF)cn2)n(C2CCC2)c2cc(C=C(F)F)ccc12` [compound 103, 6-[3-cyano-1-cyclobutyl-6-(2,2-difluoroethenyl)-1H-indol-2-yl]-N-(1,3-difluoropropan-2-yl)pyridine-3-sulfonamide] reads < 500 nM; that for `C[C@H](NS(=O)(=O)c1ccc(-c2c(C#N)c3ccc(CF)cc3n2C2CCC2)nc1)C1CC1` [compound 317, 6-[3-cyano-1-cyclobutyl-6-(fluoromethyl)-1H-indol-2-yl]-N-[(1S)-1-cyclopropylethyl]pyridine-3-sulfonamide], < 500 nM; that for `Cc1cc2c(cc1F)c(C#N)c(-c1ccc(S(=O)(=O)NC(C)(C)C)cn1)n2C1CCOCC1` [compound 752, N-tert-butyl-6-[3-cyano-5-fluoro-6-methyl-1-(tetrahydro-2H-pyran-4-yl)-1H-indol-2-yl]pyridine-3-sulfonamide], < 500 nM.
The figure for `CCC(NS(=O)(=O)c1ccc(-c2c(C#N)c3cc(F)c(OC(F)F)cc3n2C2CCC2)nc1)C(F)(F)F` (stereo not shown) [compound 790, 6-[3-cyano-1-cyclobutyl-6-(difluoromethoxy)-5-fluoro-1H-indol-2-yl]-N-(1,1,1-trifluorobutan-2-yl)pyridine-3-sulfonamide] is < 500 nM.
The result for `Cc1cc2c(cc1F)c(C#N)c(-c1ccc(S(=O)(=O)N[C@H](C)C(F)(F)F)cn1)n2-c1ncccn1` [compound 695, 6-[3-cyano-5-fluoro-6-methyl-1-(pyrimidin-2-yl)-1H-indol-2-yl]-N-[(2R)-1,1,1-trifluoropropan-2-yl]pyridine-3-sulfonamide] reads < 500 nM; that for `COc1ccc2c(C#N)c(-c3ccc(S(=O)(=O)NC4CC(F)(F)C4)cn3)n(C3CCCC3)c2c1` [compound 246, 6-(3-cyano-1-cyclopentyl-6-methoxy-1H-indol-2-yl)-N-(3,3-difluorocyclobutyl)pyridine-3-sulfonamide], 500 to 2000 nM; that for `C[C@H](NS(=O)(=O)c1ccc(-c2c(C#N)c3ccc(C4CC4)cc3n2-c2ncccn2)nc1)C(F)(F)F` [compound 650, 6-[3-cyano-6-cyclopropyl-1-(pyrimidin-2-yl)-1H-indol-2-yl]-N-[(2S)-1,1,1-trifluoropropan-2-yl]pyridine-3-sulfonamide], < 500 nM.
As for `COC(=O)c1c(-c2ccc(S(=O)(=O)NC(C)(C)C(F)(F)F)cn2)n(C2CCCC2)c2cc(C)c(F)cc12` [compound 754, methyl 1-cyclopentyl-5-fluoro-6-methyl-2-{5-[(1,1,1-trifluoro-2-methylpropan-2-yl)sulfamoyl]pyridin-2-yl}-1H-indole-3-carboxylate], the concentration for half-maximal inhibition (IC50) was < 500 nM.
The result for `Cc1nc(NS(=O)(=O)C(C)(C)C)ccc1-c1c(C(=O)O)c2cc(F)c(OC(F)F)cc2n1C(C)C` [compound 1093, 2-{6-[(tert-butylsulfonyl)amino]-2-methylpyridin-3-yl}-6-(difluoromethoxy)-5-fluoro-1-(propan-2-yl)-1H-indole-3-carboxylic acid] reads 500 to 2000 nM; that for `Cc1cc2c(cc1F)cc(-c1ccc(S(=O)(=O)N[C@@H](C)C(F)(F)F)cn1)n2-c1ccoc1` [compound 988, 6-[5-fluoro-1-(furan-3-yl)-6-methyl-1H-indol-2-yl]-N-[(2S)-1,1,1-trifluoropropan-2-yl]pyridine-3-sulfonamide], < 500 nM.
The figure for `Cc1cc2c(cc1F)cc(-c1ccc(S(=O)(=O)N[C@@H](C)C(F)(F)F)cn1)n2-c1cccs1` [compound 989, 6-[5-fluoro-6-methyl-1-(thiophen-2-yl)-1H-indol-2-yl]-N-[(2S)-1,1,1-trifluoropropan-2-yl]pyridine-3-sulfonamide] is < 500 nM; for `C[C@H](NS(=O)(=O)c1cnc(-c2c(C#N)c3ccc(F)cc3n2C2CCCC2)nc1)C1CC1` [compound 497, 2-(3-cyano-1-cyclopentyl-6-fluoro-1H-indol-2-yl)-N-[(1S)-1-cyclopropylethyl]pyrimidine-5-sulfonamide] it is < 500 nM.
The result for `C[C@H](NS(=O)(=O)c1ccc(-c2c(C#N)c3ccc(CC(F)F)cc3n2C2CCCC2)nc1)C1CC1` [compound 594, 6-[3-cyano-1-cyclopentyl-6-(2,2-difluoroethyl)-1H-indol-2-yl]-N-[(1S)-1-cyclopropylethyl]pyridine-3-sulfonamide] reads < 500 nM.
Consider `Cc1cc2c(cc1F)c(C#N)c(-c1ccc(S(=O)(=O)N[C@@H](C)C(F)(F)F)cn1)n2-c1ncco1` [compound 1073, 6-[3-cyano-5-fluoro-6-methyl-1-(1,3-oxazol-2-yl)-1H-indol-2-yl]-N-[(2S)-1,1,1-trifluoropropan-2-yl]pyridine-3-sulfonamide], for which the IC50 is < 500 nM.
The result for `CC(C)(NS(=O)(=O)c1ccc(-c2c(C#N)c3cc(F)c(OC(F)F)cc3n2C2CCCC2)nc1)C(F)(F)F` [compound 862, 6-[3-cyano-1-cyclopentyl-6-(difluoromethoxy)-5-fluoro-1H-indol-2-yl]-N-(1,1,1-trifluoro-2-methylpropan-2-yl)pyridine-3-sulfonamide] reads < 500 nM.
